The subject of assay [1] is 15 proteases in the LUAD protease panel. The experiment in a line: in vitro recombinant protease screen of FRET-paired substrates. As to conditions: fluorescence fold change at 45 minutes; 1 μM substrate, 12.5 nM recombinant enzyme; MP metallo-, SP serine, AP aspartic protease. The class given is biochemical. The text has this:
Hundreds of peptide sequences have been previously designed and validated as protease substrates, leveraging known catalytic specificities of different protease families, published datasets and substrate sequences in databases like cutDB and MEROPS (Igarashi et al., Nucleic Acids Res 35, D546-549, 2007; Rawlings et al., Nucleic Acids Res 46, D624-D632, 2018). Fourteen of these substrates were nominated in an effort to cover the specificity profiles of metallo-, serine and aspartic endoproteases, all of which were included in the LUAD protease panel, and the catalytic activity of each protease-substrate pair was characterized. Quenched probes that incorporated the 14 peptide substrates were synthesized such that they fluoresce upon proteolytic cleavage to enable real-time monitoring of protease activity in vitro (FIG. 3A and Table 2). Each probe was incubated with each protease in the panel and fluorescence was monitored over 45 minutes. Shown are sample kinetic plots monitoring dequenching of the 14 FRET-paired probes when incubated with (above) and without (below) recombinant matrix metalloproteinase 3 (MMP3) (FIG. 3B). […] See also FIG. 19.
Fluorogenic protease substrates were synthesized by CPC Scientific. Recombinant proteases were purchased from Enzo Life Sciences, R&D Systems and Haematologic Technologies. For recombinant protease assays, fluorogenic substrates PPQ1-14 (1 μM final concentration) were incubated in 30 μL final volume in appropriate enzyme buffer, according to manufacturer specifications, with 12.5 nM recombinant enzyme at 37° C. (FIG. 3). Proteolytic cleavage of substrates was quantified by increases in fluorescence over time by fluorimeter (Tecan Infinite M200 Pro). Enzyme cleavage rates were quantified as relative fluorescence increase over time normalized to fluorescence before addition of protease. Hierarchical clustering was performed in GENE-E, using fluorescence fold changes at 45 minutes.

Assay [2] has as its system Kras and p53 mutant lung adenocarcinoma (KP mice). The experiment in a line: urinary ABN readout and random forest classification in KP lung adenocarcinoma model. The class given is in vivo. The protocol: To characterize ABN performance in vivo, 14 protease-sensitive ABNs were administered to KP mice and healthy, age and sex-matched controls at 5, 7.5 and 10.5 weeks after tumor initiation. Mouse bladders were voided one hour after intrapulmonary delivery and all fresh urine produced during the subsequent hour (from 60-120 minutes after administration) was pooled and collected. LC-MS/MS was performed and peak area ratios (defined as peak area of urinary reporter divided by peak area of spiked-in internal standard) of protease-sensitive reporters were mean-normalized within each sample to reduce mouse-to-mouse variation.
A random forest classifier was then sought to be built to enable prospective diagnosis of lung cancer in KP mice. Random forest is a high-performance classifier, applicable to a wide variety of classification tasks, that generates a collection of decision trees (a “forest”) that are sampled to produce classification results (Breiman, Machine Learning 45, 5-32, 2001). A random forest classifier was trained using 50% of control mice at 5 weeks, 7.5 weeks and 10.5 weeks, as well as 50% of KP mice at 7.5 weeks (FIG. 6A). The classifier assigned a probability that each mouse belonged to either the KP cohort or the healthy control cohort (FIG. 6B, “Training” panel), achieving perfect separation of control and KP mice. The classifier was then sought to be tested on an independent validation cohort consisting of classifier-naive KP mice at 5 weeks, 7.5 weeks and 10.5 weeks post-induction, as well as the remaining control mice from each time point.
Male B6/SV129 Kras^LSL-G12D/+; Trp53^fl/fl (KP) mice between 18 and 30 weeks old were used for lung adenocarcinoma experiments. Tumors were initiated, as described previously (DuPage et al., Nat Protoc 4, 1064-1072 (2009)), by the intratracheal administration of 50 μL of adenovirus-SPC-Cre (2.5×10^8 PFU in Opti-MEM with 10 mM CaCl2)) under isoflurane anesthesia. […] Tumor growth was monitored by micro computed tomography (microCT) imaging (General Electric) and was scored by a blinded radiation oncologist using MicroView (Parallax Innovations) (Table 4). Tumor volumes were calculated by using the ROI sphere/elliptical tool.
ABN constructs (GluFib-Substrate-PEG-840 kDa) for urinary experiments were synthesized by CPC Scientific (Sunnyvale, CA). ABNs were dosed (50 μL total volume, 20 μM concentration per ABN) by intratracheal intubation, as described above. Bladders were voided 60 minutes after ABN administration and all urine produced 60-120 min after ABN administration was collected using custom tubes in which the animals rest upon 96-well plates that capture urine. Urine was pooled and frozen at −80° C. until analysis by LC-MS/MS.
Liquid chromatography/tandem mass spectrometry was performed by Syneos Health (Princeton, NJ) using a Sciex 6500 triple quadrupole instrument. Briefly, urine samples were treated with UV irradiation to photocleave the ANP linker and liberate the Glu-Fib reporter from residual peptide fragments. Samples were extracted by solid-phase extraction and analyzed by multiple reaction monitoring by LC-MS/MS to quantify concentration of each Glu-Fib mass variant. Analyte quantities were normalized to a spiked-in internal standard and concentrations were calculated from a standard curve using peak area ratio (PAR) to the internal standard. Mean normalization was performed on PAR values to account for mouse-to-mouse differences in ABN inhalation efficiency and urine concentration.
Principal component analysis (PCA) was performed on mean normalized PAR values in the R statistical environment (Team, R.C. R, R Foundation for Statistical Computing, Vienna, Austria, 2017) using the prcomp function. Binary classification was performed using the Caret package (Kuhn, M. caret: Classification and Regression Training. (2017)) in the R statistical environment). […]

Assay [3] deals with P. aeruginosa strain PA01 lung infection. The experiment in a line: histology and immunofluorescence of lung sections after antibiotic treatment. Type of assay: in vivo, mice. Here is the method: To test whether inflammation remained after antibiotic therapy, histological and immunofluorescence analysis of lung sections were performed from infected and treated mice. […] The robust diagnostic capability of ELA to identify infection but poor ability to monitor treatment, paired with the robust ability for LAS to specifically monitor treatment highlights the importance of multiplexing and measuring both host and pathogen factors.
Individual responses to antimicrobial treatment can be highly variable, dependent upon the strain of pathogen and the presence of antibiotic resistance, and current clinical tests take 24-72 hours to identify antibiotic susceptibility (Caliendo et al., Clin Infect Dis, 57, S139, 2013). In addition, current clinical tests used to visualize lung infections (e.g., chest X-ray and computed tomography) are often unable to distinguish active infections from those that have been adequately treated until several weeks after antibiotic therapy is complete, because the airspace opacifications characteristic of pneumonia remain apparent on routine radiography screens (Bruns et al., J Gen Intern Med, 25, 203, 2010). Therefore, the ability of the infection-tracking ABNs to identify successful versus insufficient treatment on an acute time-scale shortly after therapeutic initiation was sought to be evaluated. Only 5 hours after establishing lung infections with PA01, antibiotic treatment was initiated with either ciprofloxacin (efficacious against P. aeruginosa) or doxycycline (ineffective against gram-negative bacteria including P. aeruginosa) (FIG. 13A). The following day, multiplexed LAS-E and ELA-E ABNs were administered and urine was collected. […] The persistent Pseudomonas immunostaining observed following ciprofloxacin treatment might be derived from residual Pseudomonas antigens remaining from lysed bacteria that had not yet been cleared by the immune system. Alternatively, the reduced LAS sensor reading in these treated mice could reflect a suppression of LasA secretion from bacteria as they are killed by the potent antibiotic.
All animal studies were approved by Massachusetts Institute of Technology's Committee on Animal Care. For infection studies, 5-7 week old female CD-1 mice were innoculated intratracheally with 1.25×10^6 CFU of P. aeruginosa strain PA01 in 50 μL of PBS. Bacteria were cultured overnight in LB broth, then subcultured and grown to log phase (OD600≈0.5). Bacteria were pelleted, washed with sterile PBS, and then resuspended to the requisite concentration for intratracheal administration. Mice were administered buprenorphine and meloxicam several hours after infection. For antibiotic treatment studies, mice were injected intraperitoneally with 40 mg/kg ciprofloxacin or 30 mg/kg doxycycline twice per day for up to 6 days.
Animals were perfused with PBS followed by 10% formalin solution. The lungs were resected and fixed in formalin before paraffin embedding and sectioning. […] Fluorescence images were acquired on a Perkin Elmer Pannoramic250. Quantification of neutrophil signal was completed by capturing 3-5 representative fields from each stained lung section and counting positive cells. Quantification of pseudomonas signal was completed by capturing 3-5 representative fields from each stained lung section and measuring total positive area after uniform thresholding of each single-channel fluorescence image (ImageJ).

The mark [4] stands for this setting: 24 hours post-infection, after 19 hours of antibiotic therapy.

Experimental findings from patent publication US12173349B2, “Lung protease nanosensors and uses thereof” (Massachusetts Institute of Technology, priority 2018, dated 2024) are described below.

Entries after “also recorded” stand apart in the source; their conditions may differ. Where no end group is shown, it is not given here. [ ]: non-standard residue; d: D form. F+10 = not defined here; A+4 = not defined here; G+2 = not defined here; G+3 = not defined here

For “PP11: ABN: reporter e(+3G)(+1V)ndnee(+2G)(+10F)Fs(+4A)r, ANP, substrate SGSKIIGGG, nanocarrier PEG8-40 kDa (chain 1 [dE][G+3][V+1][dN][dD][dN][dE][dE][G+2][F+10]F[dS][A+4][dR]; reading uncertain; also: ANP photolabile linker, attachment not given here, PEG8-40 kDa nanocarrier, attachment not given here, how reporter and substrate are joined not given here, printed as PP11: ABN: reporter e(+3G)(+1V)ndnee(+2G)(+10F)Fs(+4A)r, ANP, substrate SGSKIIGGG, nanocarrier PEG8-40 kDa)”, the “protease class(es) cleaving the substrate in vitro” value in assay [1] was “serine protease-sensitive; also recorded: only by serine proteases”. For the same compound, the “urinary reporter enrichment relative to healthy controls” value in assay [2] (KP10.5 wk urine) is “most significantly enriched”.

For the compound “PP09: ABN: reporter eGVndneeGF(+10F)s(+4A)r, ANP, substrate KPISLISSG, nanocarrier PEG8-40 kDa (chain 1 [dE]GV[dN][dD][dN][dE][dE]GF[+10F][dS][+4A][dR]; also: ANP photolabile linker, PEG8-40 kDa nanocarrier, linkage of reporter, ANP, substrate and carrier not given here)”, the “protease class(es) cleaving the substrate in vitro” value in assay [1] was “metalloproteases or both metalloproteases and aspartic proteases”. The “urinary reporter enrichment relative to healthy controls” value in assay [2] (KP7.5 wk urine) and in assay [2] (KP10.5 wk urine) was “enriched” throughout.

With `O=C(O)c1cn(C2CC2)c2cc(N3CCNCC3)c(F)cc2c1=O` [ciprofloxacin], in assay [3] (setting [4]), the “decrease of Pseudomonas immunofluorescent signal compared to the doxycycline-treated group” value is on record as approximately 60%; the “lung inflammation and neutrophils” value is “marked lung inflammation and elevated neutrophils”. Further, in assay [3] (4 day course of ciprofloxacin, 40 mg/kg intraperitoneally twice per day), the “Pseudomonas immunofluorescence signal in lungs of infected mice relative to uninfected or ciprofloxacin-treated mice” value was 7-9 fold. Further, the “Pseudomonas in lung sections after treatment” value in assay [3] (histology and immunofluorescent staining after ciprofloxacin course) is reported as “no Pseudomonas”. Moreover, in assay [3] (relative to infected mice), the “decrease in neutrophil count in lungs after antibiotic treatment” value was approximately 30%.

With “PP02: ABN: reporter eG(+6V)ndneeGF(+1F)s(+1A)r, ANP, substrate PVGLIG, nanocarrier PEG8-40 kDa (chain 1 EGVNDNEEGFFSAR; not fully specified (some residues); printed as PP02: ABN: reporter eG(+6V)ndneeGF(+1F)s(+1A)r, ANP, substrate PVGLIG, nanocarrier PEG8-40 kDa)”, the “protease class(es) cleaving the substrate in vitro” value in assay [1] is “metalloproteases or both metalloproteases and aspartic proteases”. For the same compound, the “urinary reporter enrichment relative to healthy controls” value in assay [2] (KP7.5 wk urine) and in assay [2] (KP10.5 wk urine) was “enriched” in each case.

In the case of “PP03: ABN: reporter e(+3G)(+1V)ndneeGFFs(+4A)r, ANP, substrate PVPLSLVM, nanocarrier PEG8-40 kDa (chain 1 [dE]G[+1V][dN][dD][dN][dE][dE]GFF[dS][+4A][dR]; not fully specified (some residues); printed as PP03: ABN: reporter e(+3G)(+1V)ndneeGFFs(+4A)r, ANP, substrate PVPLSLVM, nanocarrier PEG8-40 kDa; also: ANP photolabile linker, PEG8-40 kDa nanocarrier, linkage of reporter, ANP, substrate and carrier not given here)”, the “protease class(es) cleaving the substrate in vitro” value in assay [1] is “metalloproteases or both metalloproteases and aspartic proteases”. In addition, the “urinary reporter enrichment relative to healthy controls” value in assay [2] (KP7.5 wk urine) and in assay [2] (KP10.5 wk urine) was “enriched” each time.
